Measurements from patent publication US20110136751A1, “Use of Polyphenols in the Treatment of Cancer” (Green Molecular, priority 2009, published 2011).
Marks after values point to notes of the source that are not given here.

Experiments:
[1] = system: HT-29/Tet-bcl-2 xenografts; assay: HT-29/Tet-bcl-2 xenograft growth; type: in vivo, mice; settings: Table 3B, 30 days after inoculation
Protocol: For HT-29 cancer cell xenograft experiments, female nu/nu nude mice (ages 6 to 8 weeks; Charles Rivers Laboratories, Wilmington, Mass.) were inoculated s.c. with 5×10^6 HT-29 or HT-29-GFP cells per mouse. Tumor volume was calculated based on two dimensions, measured using calipers, and was expressed in cubic millimeters according to the formula: V=0.5a×b2, where a and b are the long and the short diameters of the tumor, respectively. For histological analysis the surgical and xenograft tissue samples were fixed in 4% formaldehyde, paraffin embedded, and stained with hematoxilin & eosin and safran. Mice were monitored for at least 30 days after inoculation, and tumor measurements were taken on day 5, 10, 15, 20, 25, and 30. This study was conducted in compliance with international laws and policies (EEC Directive 86/609, OJ L 358. 1, Dec. 12, 1987; and NIH Guide for the Care and Use of Laboratory Animals, NIH Publ. No. 85-23, 1985). […]
(§1) The Tet-off gene expression system (Clontech, Palo Alto, Calif.) was used, as previously reported (17), to insert the human bcl-2 gene and for transfection into HT-29 cells following manufacturer's instructions. Bcl-2 protein was quantitated in the soluble cytosolic fraction by enzyme immunoassay (17) using a monoclonal antibody-based assay from Sigma (one unit of Bcl-2 was defined as the amount of Bcl-2 protein in 1000 non-transfected HT-29 cells).

HT-29 xenografts = assay: HT-29 xenograft growth; type: in vivo, nu/nu nude mice; settings: Table 3B; HT-29; 30 days after inoculation
Protocol: Tumor growth was measured during a 30-day period. Tumor volume, one week after inoculation and before PF administration, was of 56+15 mm3. A. […] B. Growth profile of control ([…]) and t-PTER- and QUER (∘) (20 mg of each PF/kg)-treated HT-29-bearing mice. Data are means±S.D. of 18-20 mice per group. The significant test refers, for all groups, to the comparison between PTER and/or QUER and controls (treated with physiological saline) (*P<0.01). For HT-29 cancer cell xenograft experiments, female nu/nu nude mice (ages 6 to 8 weeks; […] Tumor volume was calculated based on two dimensions, measured using calipers, and was expressed in cubic millimeters according to the formula: […] For histological analysis the surgical and xenograft tissue samples were fixed in 4% formaldehyde, paraffin embedded, and stained with hematoxilin & eosin and safran. […] This study was conducted in compliance with international laws and policies (EEC Directive 86/609, OJ L 358. 1, Dec. 12, 1987; and NIH Guide for the Care and Use of Laboratory Animals, NIH Publ. No. 85-23, 1985). X rays were administered using a […] SL75 linear accelerator from Philips. For this purpose each mouse was anesthetized with nembutal (50 mg/kg i.p.), and fixed on a Perspex platform.

bcl-2 [2] = assay: Bcl-2 protein enzyme immunoassay in xenograft samples; type: in vivo, human; settings: single treatment (PQ or SOD2-AS)
Excerpt: as §1

SOD2 = assay: SOD activity in xenograft samples; type: in vivo, human
Protocol: (§2) Tumor tissue was homogenized in 0.1M phosphate buffer (pH 7.2) at 4° C.
(§3) Superoxide dismutase (SOD) activity was measured as described by Flohé and Otting (14), using 2 mM cyanide in the assay medium to distinguish mangano-type enzyme (SOD2) from the cuprozinc type (SOD1).

SOD1 = assay: SOD activity in xenograft samples; type: in vivo, human; settings: single treatment (PQ or SOD2-AS)
Protocol: as §2, §3

NF-κB p50/65 = assay: NF-κB DNA binding ELISA in HT-29 nuclear extracts; type: cell-based, human; settings: HT-29 cells; p65 siRNA transfection or 10 μg DHMEQ/ml, 2 h after removing the inhibitor
Protocol: HT-29 cells were cultured and treated with PFs as indicated in the caption to FIG. 1. (A) NF-κB binding to DNA (measured 3 h after the last PF addition). Recombinant human TNFα (0.5 nM, Sigma, St. Louis, Mo.) was added 6 h before the last PF addition. IκBα (B) and P-IκBα (C) analysis by western blot (lane 1, TNFα; lane 2, control; lane 3, […]). Relative densitometric intensities for protein bands from western blots of IκBα and P-IκBα) were normalized to β-actin (black bar, TNFα; white bar, control; grey bar, […]). […] Transfection of siRNA was performed as explained under “Materials and Methods”. (A) western blot analysis of p65 in cells transfected with p65 siRNA, or NS siRNA. For comparison NF-κB binding to DNA (B) and bcl-2 expression (RT-PCR) (C) were determined in HT-29 cells transfected with p65 siRNA or treated with dehydroxymethylepoxyquinomicin (DHMEQ). […] Nuclear extract were prepared as previously described (18). An enzyme linked immunosorbent assay (ELISA) was performed in line with the manufacturer's protocol for a commercial kit (Chemiluminiscent NF-κB p50/65 Transcription Factor Assay, Oxford Biomedical Research, Oxford, Mich.). […] The DNA bound NF-κB is selectively recognized by the primary antibody, which, in turn, is detected by the secondary antibodyalkaline phosphatase conjugate. […]

bcl-2 [3] = assay: bcl-2 expression (RT-PCR) in cultured HT-29 cells; type: cell-based, human; settings: p65 siRNA transfection or 10 μg DHMEQ/ml, 12 h after removing the inhibitor
Protocol: Transfection of siRNA was performed as explained under “Materials and Methods”. (A) western blot analysis of p65 in cells transfected with p65 siRNA, or NS siRNA. For comparison NF-κB binding to DNA (B) and bcl-2 expression (RT-PCR) (C) were determined in HT-29 cells transfected with p65 siRNA or treated with dehydroxymethylepoxyquinomicin (DHMEQ). For this purpose cultured HT-29 cells (24 h after seeding) were incubated in the absence or in the presence of 10 μg DHMEQ/ml, and NF-κB activation and bcl-2 expression were measured 2 h and 12 h, respectively, after removing the inhibitor.
Total RNA was isolated using the trizol kit from Invitrogen and following manufacturer's instructions. cDNA was obtained using a random hexamer primer and a MultiScribe Reverse Transcriptase kit as described by the manufacturer (TaqMan RT Reagents, Applied Biosystems, Foster City, Calif.). […]
Real-time quantitation of the mRNA relative to GAPDH was performed with a SYBR Green I assay, and a iCycler detection system (Biorad, Hercules, Calif.). […] The increase in fluorescence was measured in real time during the extension step. The threshold cycle (CT) was determined, and then the relative gene expression was expressed as: fold change=2^−Δ(ΔCT), where ΔCT=CT target−CT GAPDH, and Δ (ΔCT)=ΔCT treated−ΔCT control. […]

| NF-κB binding to DNA (NF-κB p50/65) | Compound | Tumor volume [1] | Tumor volume (HT-29 xenografts) | Bcl-2 levels (bcl-2 [2]; HT-29/tet-Bcl-2 xenograft) | Bcl-2 levels (bcl-2 [2]; HT-29 xenograft) [Units/mg protein] | SOD2 activity (SOD2; HT-29/tet-Bcl-2 xenograft, single treatment (PQ or SOD2-AS)) [Units/mg protein] | SOD2 activity (SOD2; HT-29 xenograft, single treatment (PQ 20 mg each/kg or SOD2-AS 5 mg/kg each 3 days)) | SOD1 activity (SOD1; HT-29/tet-Bcl-2 xenograft) [Units/mg protein] | SOD1 activity (SOD1; HT-29 xenograft) [Units/mg protein] | bcl-2 expression (bcl-2 [3]) |
| --- | --- | --- | --- | --- | --- | --- | --- | --- | --- | --- |
| – | SOD2-AS: Fully phosphorothioated 21-mer human SOD2 antisense oligodeoxynucleotide, 5′-GGAACCUCACAUCAACGCGCA-3′ (DNA, all phosphorothioate, methylation of C and T or U not given here) | 2942 ± 387^ab mm^3 | 2337 ± 266^b mm^3 | 81 ± 9^a Units/mg protein | 19 ± 3 | 0.33 ± 0.12 | 0.27 ± 0.056^b Units/mg protein | 6.3 ± 0.48 | 5.77 ± 0.62 | – |
| significant decrease | O=C(NC1=CC(=O)[C@H]2O[C@H]2[C@H]1O)c1ccccc1O [DHMEQ, dehydroxymethylepoxyquinomicin] | – | – | – | – | – | – | – | – | significant decrease |
